Data as given in US20240398781A1, “SPIROCYCLIC CYCLIC MODULATORS OF CHOLESTEROL BIOSYNTHESIS AND THEIR USE FOR PROMOTING REMYELINATION” (GENENTECH, INC., priority 2021, published 2024).
Read-outs that look alike come from different tables or passages of the source.

Key:
[1] = tested on: EBP (zymostenol accumulation in EpiSC-derived OPCs); assay: GC/MS-based sterol profiling, zymostenol accumulation in OPCs; assay type: cell-based, mouse; conditions: Mus musculus, 24 h, read-out: Zymostenol GCMS EC50
Method in brief: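 EpiSC-derived OPCs (100,000/well) were treated 24 h in N2B27 without growth factors. Sterols were TMS-derivatized and analysed by GC/MS full-scan EI, quantified against cholesterol-d7. Zymostenol was normalized to the level after 24 h with 100 nM positive control reference.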

[2] = target: human EBP (Homo sapiens (Human), UniProt Q15125); assay: Competition binding assay (SPA, [3H]-Ifenprodil) to determine compound affinity to EBP; conditions: read-out: hEBP SPA Ki
Sequence of human EBP (Q15125 whole entry): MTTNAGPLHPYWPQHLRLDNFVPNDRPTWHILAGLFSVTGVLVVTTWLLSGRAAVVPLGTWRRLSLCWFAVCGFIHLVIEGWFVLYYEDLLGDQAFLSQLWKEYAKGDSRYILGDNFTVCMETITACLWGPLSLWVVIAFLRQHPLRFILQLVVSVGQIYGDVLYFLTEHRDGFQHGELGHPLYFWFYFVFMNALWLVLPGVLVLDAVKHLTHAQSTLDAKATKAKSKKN
Experimental: Membrane preparation: To examine compound binding affinity to EBP, human EBP was overexpressed in human embryonic kidney 293 cells. Cell pellet was lysed in 10 times weight binding buffer (50 mM Tris, 5 mM MgCl2, 0.1 mM EDTA, lx protease inhibitor cocktail, pH 7.5) on ice by using a dounce homogenizer. The solution was centrifuged at 25,000 g for 50 min at 4° C. The membrane pellet was re-suspended in binding buffer and run through a 25 5/8 gauge needle. After checking the concentration by Bradford assay, the whole cell membrane solution was adjusted to 20 mg/mL and stored at −80° C.
This binding solution was centrifuged at 400 g for 5 minutes to collect the bead/membrane mixture. After re-suspending the pellet in binding buffer at the same calculated volume with 0.01% BSA (Sigma A1933), the bead/membrane mixture was added in 384-well low-binding surface plate (PerkinElmer Cat #6057480) at 25 μl/well. Radioligand at different concentrations with and without the non-radio-labeled same ligand 5 uM (for nonspecific and total signal, respectively) was added to bring final volume to 50 µl/well with DMSO concentration at 0.1%. At equilibrium (3 hours after ligand addition), radiometric signal CPM was counted by using a Microbeta2 microplate counter (Perkinelmer).
Competition binding assay to determine compound affinity: The same conditions of the radioligand Kd study were used for compound single dose percentage inhibition and equilibrium dissociation constant Ki examinations, except 50 nL compound DMSO stock was pre-added in 384-well low-binding surface plate (PerkinElmer Cat #6057480) by Echo 550 (Labcyte) to reach the final concentration for single dose test at 1 uM, and dose response test from 0.06 nM to 5 uM (8 dose, 5 times dilution). A pre-incubated bead/membrane mixture was added in compound plate at 0.3 mg beads and […] membrane per well. […] At equilibrium (3 hours after ligand addition), radiometric signal was counted as described above. The percentage inhibition of compound at each testing concentration was calculated by normalizing each condition's CPM readout to full block (5 uM non-radiolabeled ligand) and non-block (DMSO) control conditions. Compound binding inhibition IC50 was determined by nonlinear regression fitting of percentage inhibition plot against compound concentration. Compound Ki was calculated from the equation Ki=IC50/(1+[L]/Kd), which [L] was radioligand concentration used in assay. All tests had N bigger or equal to 2.

[3] = tested on: EpiSC-derived OPCs; assay: In vitro phenotypic screening of OPCs (MBP staining, high-content imaging); assay type: cell-based, mouse; conditions: percentage of MBP+ oligodendrocytes, 3 days, 0.5 nM to 1000 nM, read-out: OPC EC50
Method in brief: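 Readout: high-content imaging of MBP immunostaining around DAPI nuclei, giving percent oligodendrocytes, with EC50 from a Levenberg-Marquardt Hill fit. Epiblast stem cell-derived OPCs were plated on laminin at 150,000/cm^2 in growth-factor-free N2B27. They were exposed 3 days to an 8-point series, 0.5-1000 nM final, in two or more independent platings.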

[4] = EpiSC-derived OPCs, 24 hr treatment, 8 doses from 0.15 nM to 333 nM
[5] = [3H]-Ifenprodil 10 nM, HEK293 membrane overexpressing human EBP, Ki=IC50/(1+[L]/Kd)

## O=S1(=O)CC2(CCN([C@H]3CCN(c4ccc(C(F)(F)F)nc4)C3)C2)C1 (single isomer, unassigned) [9A*]
[1]; [4]
  EC50: 0.01 µM
[2]; [5]
  Ki: 0.034 µM
[3]; Mus musculus, 72 h
  EC50: 0.086 µM

## O=S1(=O)CC2(CCN([C@@H]3CCN(c4ccc(C(F)(F)F)nc4)C3)C2)C1 (single isomer, unassigned) [9B*]
[1]; [4]
  EC50: 0.394 µM
[2]; [5]
  Ki: 0.17 µM
[3]; Mus musculus, 72 h
  EC50: > 1 µM

## CC(C)n1nc(C(F)(F)F)cc1[C@H]1CC[C@H](N2CCC3(C2)CS(=O)(=O)C3)C1 (single isomer, unassigned) [10A*]
[1]; [4]
  EC50: 0.0028 µM
[2]; [5]
  Ki: 0.034 µM
[3]; Mus musculus, 72 h
  EC50: 0.018 µM

## CC(C)n1nc(C(F)(F)F)cc1[C@H]1CC[C@@H](N2CCC3(C2)CS(=O)(=O)C3)C1 (single isomer, unassigned) [10B*]
[1]; [4]
  EC50: 0.0029 µM
[2]; [5]
  Ki: 0.019 µM
[3]; Mus musculus, 72 h
  EC50: 0.02 µM

## CC(C)n1nc(C(F)(F)F)cc1[C@@H]1CC[C@H](N2CCC3(C2)CS(=O)(=O)C3)C1 (single isomer, unassigned) [10C*]
[1]; [4]
  EC50: 0.003 µM
[2]; [5]
  Ki: 0.029 µM
[3]; Mus musculus, 72 h
  EC50: 0.011 µM

## O=S1(=O)CC2(CCN([C@@H]3CC[C@H](c4ccc(C(F)(F)F)nc4)C3)C2)C1 (single isomer, unassigned) [11C*]
[1]; [4]
  EC50: 0.0041 µM
[2]; [5]
  Ki: 0.035 µM
[3]; Mus musculus, 72 h
  EC50: 0.024 µM

## O=S1(=O)CC2(CCN(C3CC[C@H](c4ccc(C(F)(F)F)nc4)C3)C2)C1 (single isomer, unassigned) [11D*]
[1]; [4]
  EC50: 0.044 µM
[2]
  Ki: 0.04 µM
[3]; Mus musculus, 72 h
  EC50: 0.28 µM

## CC(C)n1nc(-c2cncc(C(F)(F)F)c2)cc1[C@H]1CC[C@@H](N2CCC3(C2)CS(=O)(=O)C3)C1 (single isomer, unassigned) [13A*]
[1]; [4]
  EC50: 0.00091 µM
[2]; [5]
  Ki: 0.015 µM
[3]; Mus musculus, 72 h
  EC50: 0.0013 µM

## CC(C)n1nc(-c2cncc(C(F)(F)F)c2)cc1[C@@H]1CC[C@H](N2CCC3(C2)CS(=O)(=O)C3)C1 (single isomer, unassigned) [13B*]
[1]; [4]
  EC50: 0.0009 µM
[2]; [5]
  Ki: 0.025 µM
[3]; Mus musculus, 72 h
  EC50: 0.0013 µM

## CC(C)n1nc(-c2cncc(C(F)(F)F)c2)cc1[C@@H]1CC[C@@H](N2CCC3(C2)CS(=O)(=O)C3)C1 (single isomer, unassigned) [13C*]
[1]; [4]
  EC50: 0.0041 µM
[2]; [5]
  Ki: 0.021 µM
[3]; Mus musculus, 72 h
  EC50: 0.021 µM

## CC(C)n1nc(-c2cncc(C(F)(F)F)c2)cc1[C@H]1CC[C@H](N2CCC3(C2)CS(=O)(=O)C3)C1 (single isomer, unassigned) [13D*]
[1]; [4]
  EC50: 0.0012 µM
[2]; [5]
  Ki: 0.071 µM
[3]; Mus musculus, 72 h
  EC50: 0.0022 µM

## CC(C)n1nc(-c2ccc(C(F)(F)F)nc2)nc1[C@H]1CC[C@H](N2CCC3(C2)CS(=O)(=O)C3)C1 (single isomer, unassigned) [17B*]
[1]; [4]
  EC50: 0.004 µM
[2]; [5]
  Ki: 0.031 µM
[3]; Mus musculus, 72 h
  EC50: 0.022 µM

## CC(C)n1nc(-c2ccc(C(F)(F)F)nc2)nc1[C@H]1CC[C@@H](N2CCC3(C2)CS(=O)(=O)C3)C1 (single isomer, unassigned) [17D*]
[1]; [4]
  EC50: 0.0035 µM
[2]; [5]
  Ki: 0.02 µM
[3]; Mus musculus, 72 h
  EC50: 0.014 µM

## CC(C)n1nc(C2CC2)nc1[C@@H]1CC[C@H](N2CCC3(C2)CS(=O)(=O)C3)C1 (single isomer, unassigned) [18A*]
[1]
  EC50: 0.072 µM
[2]; [5]
  Ki: 0.31 µM
[3]; Mus musculus, 72 h
  EC50: 0.39 µM

## CC(C)n1nc(C2CC2)nc1[C@H]1CC[C@H](N2CCC3(C2)CS(=O)(=O)C3)C1 (single isomer, unassigned) [18B*, 6-(3-(3-cyclopropyl-1-isopropyl-1H-1,2,4-triazol-5-yl)cyclopentyl)-2-thia-6-azaspiro[3.4]octane 2,2-dioxide]
[1]; [4]
  EC50: 0.2 µM
[2]; [5]
  Ki: 0.21 µM
[3]; Mus musculus, 72 h
  EC50: 0.39 µM

## CC(C)n1nc(C2CC2)nc1[C@@H]1CC[C@@H](N2CCC3(C2)CS(=O)(=O)C3)C1 (single isomer, unassigned) [18C*]
[1]; [4]
  EC50: 0.054 µM
[2]; [5]
  Ki: 0.082 µM
[3]; Mus musculus, 72 h
  EC50: 0.24 µM

## CC(C)n1nc(C2CC2)nc1[C@H]1CC[C@@H](N2CCC3(C2)CS(=O)(=O)C3)C1 (single isomer, unassigned) [18D*, 6-(3-(3-cyclopropyl-1-isopropyl-1H-1,2,4-triazol-5-yl)cyclopentyl)-2-thia-6-azaspiro[3.4]octane 2,2-dioxide]
[1]; [4]
  EC50: 0.12 µM
[2]; [5]
  Ki: 0.27 µM
[3]; Mus musculus, 72 h
  EC50: 0.43 µM

## CC(C)n1cc(C(F)(F)F)nc1[C@H]1CC[C@H](N2CCC3(C2)CS(=O)(=O)C3)C1 (single isomer, unassigned) [20A*]
[1]; [4]
  EC50: 0.24 µM
[2]; [5]
  Ki: 0.28 µM
[3]; Mus musculus, 72 h
  EC50: > 1 µM

## CC(C)n1cc(C(F)(F)F)nc1[C@@H]1CC[C@@H](N2CCC3(C2)CS(=O)(=O)C3)C1 (single isomer, unassigned) [20B*]
[1]
  EC50: 0.019 µM
[2]; [5]
  Ki: 0.055 µM
[3]; Mus musculus, 72 h
  EC50: 0.34 µM

## CC(C)n1cc(C(F)(F)F)nc1[C@H]1CC[C@@H](N2CCC3(C2)CS(=O)(=O)C3)C1 (single isomer, unassigned) [20C*]
[1]; [4]
  EC50: 0.31 µM
[2]; [5]
  Ki: 0.27 µM
[3]; Mus musculus, 72 h
  EC50: 0.66 µM

## CC(C)n1cc(C(F)(F)F)nc1[C@@H]1CC[C@H](N2CCC3(C2)CS(=O)(=O)C3)C1 (single isomer, unassigned) [20D*]
[1]; [4]
  EC50: 0.038 µM
[2]; [5]
  Ki: 0.098 µM
[3]; Mus musculus, 72 h
  EC50: 0.26 µM

## O=S1(=O)CC2(CCN([C@@H]3CCCN(c4ccc(C(F)(F)F)cc4)C3)C2)C1 (single isomer, unassigned) [22A*]
[1]; [4]
  EC50: 0.002 µM
[2]; [5]
  Ki: 0.034 µM
[3]; Mus musculus, 72 h
  EC50: 0.0095 µM

## O=S1(=O)CC2(CCN([C@H]3CCCN(c4ccc(C(F)(F)F)cc4)C3)C2)C1 (single isomer, unassigned) [22B*]
[1]; [4]
  EC50: 0.035 µM
[2]; [5]
  Ki: 0.07 µM
[3]; Mus musculus, 72 h
  EC50: 0.11 µM

## Cn1nc(C(F)(F)F)cc1[C@H]1CC[C@H](N2CCC[C@@]3(CCS(=O)(=O)C3)C2)CC1 (single isomer, unassigned) [26A*]
[1]; [4]
  EC50: 0.004 µM
[2]; [5]
  Ki: 0.033 µM
[3]; Mus musculus, 72 h
  EC50: 0.018 µM

## Cn1nc(C(F)(F)F)cc1[C@H]1CC[C@H](N2CCC[C@]3(CCS(=O)(=O)C3)C2)CC1 (single isomer, unassigned) [26B*]
[1]; [4]
  EC50: 0.038 µM
[2]; [5]
  Ki: 0.021 µM
[3]; Mus musculus, 72 h
  EC50: 0.13 µM

## Cn1nc(C(F)(F)F)cc1[C@H]1CC[C@H](N2CC[C@@]3(CCS(=O)(=O)C3)C2)CC1 (single isomer, unassigned) [27A*]
[1]; [4]
  EC50: 0.026 µM
[2]; [5]
  Ki: 0.039 µM
[3]
  EC50: 0.053 µM

## Cn1nc(C(F)(F)F)cc1[C@H]1CC[C@H](N2CC[C@]3(CCS(=O)(=O)C3)C2)CC1 (single isomer, unassigned) [27B*]
[1]; [4]
  EC50: 0.022 µM
[2]; [5]
  Ki: 0.046 µM
[3]
  EC50: 0.13 µM
